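Assay format: 96-well plates, 48-hour exposure. GI50 = concentration required for 50% inhibition of growth.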 Active and inactive are the calls of the source. Rule as the data show it: active = GI50 up to about 1.1 µM and inactive = higher.

From ChEMBL document CHEMBL1201862, “PubChem BioAssay data set” (2004) come the findings set out here.

Among the test systems are MDA-MB-231; DU-145; PC-3; SK-OV-3; SK-MEL-28; MCF7; NCI-H23; HT-29; A498; Hs-578T; HCT-15; SNB-19; SR; HCT-116; SN12C; HCC 2998; EKVX; BT-549; COLO 205; NCI/ADR-RES.
Test in all cases: NCI tumour cell line growth inhibition, 48 h

Turning to `COc1ccc(NC2C(=O)C3(C)CCC2C3(C)C)cc1` (stereo not given), the GI50 was > 100 µM (inactive) in the experiment with MDA-MB-231; > 100 µM (inactive) in the experiment on DU-145; 97.7 µM (inactive) in the experiment with PC-3; > 100 µM (inactive) in the experiment on SK-OV-3; > 100 µM (inactive) in the experiment on SK-MEL-28; > 100 µM (inactive) in the experiment with MCF7. Besides, the GI50 is > 100 µM (inactive) with NCI-H23; 40.4 µM (inactive) with HT-29; > 100 µM (inactive) in the experiment with A498; > 100 µM (inactive) in the experiment with Hs-578T; more than 100 µM in the experiment on HCT-15; > 100 µM (inactive) in the experiment on SNB-19. The GI50 with SR was 74.8 µM (inactive); in the experiment on HCT-116, > 100 µM (inactive); in the experiment on SN12C, > 100 µM (inactive); with HCC 2998, > 100 µM (inactive); in the experiment on EKVX, > 100 µM (inactive); with BT-549 it was 69 µM (inactive). In addition, the GI50 in the experiment on COLO 205 and in the experiment with NCI/ADR-RES was > 100 µM (inactive) in each case.
Consider `CCCc1[nH]nc(C(N)=O)c1/N=N/N(C)C`, for which the GI50 is > 100 µM (inactive) in the experiment on MDA-MB-231; 49.5 µM (inactive) in the experiment with DU-145; > 100 µM (inactive) in the experiment with PC-3; 59.7 µM (inactive) in the experiment with SK-OV-3; > 100 µM (inactive) in the experiment with SK-MEL-28; 20.1 µM (inactive) in the experiment on MCF7. Also, the GI50 in the experiment on NCI-H23 is 75.3 µM (inactive); in the experiment on HT-29 it was 86.3 µM (inactive); with A498, 71.6 µM (inactive); in the experiment on Hs-578T, 50 µM (inactive); with HCT-15, 50.4 µM; in the experiment on SNB-19 it was > 100 µM (inactive). The GI50 in the experiment with SR was 10.5 µM (inactive); in the experiment with HCT-116 it was 51.9 µM (inactive); in the experiment on SN12C, 48.3 µM (inactive); in the experiment on HCC 2998 it was > 100 µM (inactive); with EKVX it was 26.3 µM (inactive); with BT-549 it was 24.3 µM (inactive). Further, the GI50 is 63.2 µM (inactive) in the experiment with COLO 205 and 91 µM (inactive) in the experiment with NCI/ADR-RES.
`COc1ccc(C(=O)/C=C/c2ccc(O)c(O)c2F)c(OC)c1`: the GI50 in the experiment on MDA-MB-231 is 9.82 µM (inactive); in the experiment with DU-145 it was 3.44 µM (inactive); with PC-3, 3.14 µM (inactive); in the experiment with SK-OV-3, 9.27 µM (inactive); in the experiment on SK-MEL-28, 8.11 µM (inactive); in the experiment on MCF7, 0.279 µM (active). Besides, the GI50 in the experiment on NCI-H23 was 2.43 µM (inactive); in the experiment with HT-29, 8.97 µM (inactive); in the experiment with A498, 8.51 µM (inactive); in the experiment on Hs-578T it was 6.44 µM (inactive); in the experiment with HCT-15 it was 0.34 µM; with SNB-19, 8.3 µM (inactive). Also, the GI50 in the experiment with SR was 0.893 µM (active); in the experiment with HCT-116 it was 4.02 µM (inactive); with SN12C, 3.89 µM (inactive); in the experiment on HCC 2998 it was 4.07 µM (inactive); in the experiment with EKVX it was 9.08 µM (inactive); in the experiment with BT-549, 5.38 µM (inactive). In addition, the GI50 was 11.5 µM (inactive) with COLO 205 and 4.62 µM (inactive) in the experiment with NCI/ADR-RES.
With `c1ccc2c(c1)NC1(N3CCCCC3)CCCCC21` (stereo not given), the GI50 in the experiment with MDA-MB-231 is 34.2 µM (inactive); in the experiment with DU-145 it was 57.9 µM (inactive); with PC-3, 39.4 µM (inactive); with SK-OV-3, > 100 µM (inactive); in the experiment with SK-MEL-28, 49.3 µM (inactive); in the experiment on MCF7 it was 36.1 µM (inactive). In addition, the GI50 with NCI-H23 was 50.5 µM (inactive); with HT-29 it was 39.4 µM (inactive); in the experiment on A498, 32.8 µM (inactive); with Hs-578T, 47.9 µM (inactive); in the experiment with HCT-15 it was 44 µM; with SNB-19 it was 51.5 µM (inactive). Further, the GI50 with SR is 32 µM (inactive); with HCT-116, 37.9 µM (inactive); with SN12C, 35.4 µM (inactive); in the experiment with HCC 2998, 76.4 µM (inactive); in the experiment with EKVX it was 25.5 µM (inactive); in the experiment on BT-549 it was 53 µM (inactive). Besides, the GI50 is 62.1 µM (inactive) with COLO 205 and 91.8 µM (inactive) in the experiment on NCI/ADR-RES.
Take `Cc1cn2c(/C=C3/C(=O)Nc4ccccc43)c(-c3ccccc3)nc2s1`: the GI50 was 18.7 µM (inactive) in the experiment on MDA-MB-231; 78.3 µM (inactive) in the experiment on DU-145; 57.3 µM (inactive) in the experiment on PC-3; 30.1 µM (inactive) in the experiment with SK-OV-3; > 100 µM (inactive) with SK-MEL-28; 29.4 µM (inactive) in the experiment with MCF7. The GI50 in the experiment with NCI-H23 is 48.4 µM (inactive); in the experiment with HT-29 it was > 100 µM (inactive); with A498 it was 72.3 µM (inactive); in the experiment with Hs-578T, 27.7 µM (inactive); with HCT-15, more than 100 µM; in the experiment with SNB-19, 24.3 µM (inactive). Further, the GI50 in the experiment with SR is > 100 µM (inactive); in the experiment with HCT-116, 62.4 µM (inactive); in the experiment with SN12C, 93.1 µM (inactive); with HCC 2998 it was > 100 µM (inactive); in the experiment with EKVX it was 71.3 µM (inactive); in the experiment with BT-549, 32.9 µM (inactive). Besides, the GI50 in the experiment on COLO 205 was > 100 µM (inactive); with NCI/ADR-RES, 37.5 µM (inactive).
For `CCCOc1ccc(/C=C/C2=[N+](CCO)CCO2)cc1`, the GI50 in the experiment with MDA-MB-231, with DU-145, with PC-3, with SK-OV-3, in the experiment with SK-MEL-28 and in the experiment on MCF7 was > 100 µM (inactive) throughout. For the same compound, the GI50 with NCI-H23 is > 100 µM (inactive); with HT-29, > 100 µM (inactive); with A498 it was > 100 µM (inactive); in the experiment with Hs-578T, > 100 µM (inactive); in the experiment with HCT-15, more than 100 µM; in the experiment on SNB-19, > 100 µM (inactive). In addition, the GI50 in the experiment with SR, in the experiment on HCT-116, in the experiment with SN12C, in the experiment on HCC 2998, in the experiment with EKVX and in the experiment on BT-549 was > 100 µM (inactive) throughout. Moreover, the GI50 in the experiment with COLO 205 and in the experiment on NCI/ADR-RES was > 100 µM (inactive) throughout.
As to `COc1ccc(C[C@H]2NC[C@H](OC(C)=O)[C@H]2OC(C)=O)cc1`, the GI50 is 0.308 µM (active) in the experiment with MDA-MB-231; 0.0726 µM (active) in the experiment on DU-145; 0.21 µM (active) in the experiment with PC-3; 0.138 µM (active) with SK-OV-3; 0.143 µM (active) in the experiment on SK-MEL-28; 0.14 µM (active) in the experiment with MCF7. For the same compound, the GI50 in the experiment with NCI-H23 was 0.179 µM (active); in the experiment with HT-29, 0.183 µM (active); in the experiment with A498, 0.302 µM (active); in the experiment on Hs-578T, 0.135 µM (active); in the experiment with HCT-15, 0.144 µM; in the experiment on SNB-19, 0.0935 µM (active). Further, the GI50 in the experiment on SR is 0.177 µM (active); in the experiment with HCT-116, 0.105 µM (active); in the experiment with SN12C, 0.124 µM (active); with HCC 2998, 0.115 µM (active); with EKVX, 0.136 µM (active); in the experiment with BT-549, 0.171 µM (active). In addition, the GI50 with COLO 205 was 0.147 µM (active); in the experiment with NCI/ADR-RES it was 0.171 µM (active).
On to `c1ccc(C(Oc2noc3ccccc23)c2ccccc2)cc1`, for which the GI50 in the experiment on MDA-MB-231 is 36.2 µM (inactive); in the experiment with DU-145, 34 µM (inactive); in the experiment with PC-3 it was 34.4 µM (inactive); in the experiment with SK-OV-3, 57 µM (inactive); in the experiment on SK-MEL-28 it was 65.5 µM (inactive); with MCF7, 37.3 µM (inactive). Moreover, the GI50 in the experiment on NCI-H23 is 41.7 µM (inactive); with HT-29 it was 36.7 µM (inactive); with A498, 39 µM (inactive); in the experiment with Hs-578T it was 66.4 µM (inactive); with HCT-15, 31.3 µM; in the experiment on SNB-19 it was 46 µM (inactive). In addition, the GI50 is 13.2 µM (inactive) with SR; 25.9 µM (inactive) in the experiment with HCT-116; 35.7 µM (inactive) with SN12C; 21.7 µM (inactive) with HCC 2998; 40.9 µM (inactive) in the experiment with EKVX; 32.1 µM (inactive) in the experiment on BT-549. In addition, the values for the GI50 in the experiment on COLO 205 and in the experiment with NCI/ADR-RES were 16.9 µM (inactive) and 30.8 µM (inactive), respectively.
Consider `CC(=O)CCCCC(=O)Nc1ccc(CC(NC(=O)OC(C)(C)C)C(=O)NCC(=O)OCc2ccccc2)cc1` (stereo not given), for which the GI50 with MDA-MB-231 is 22.5 µM (inactive); in the experiment with DU-145, 32.7 µM (inactive); in the experiment with PC-3, 14.4 µM (inactive); in the experiment with SK-OV-3, 23 µM (inactive); in the experiment on SK-MEL-28 it was 19.3 µM (inactive); in the experiment on MCF7, 24.7 µM (inactive). In addition, the GI50 in the experiment on NCI-H23 was 30.8 µM (inactive); with HT-29 it was 19.6 µM (inactive); in the experiment with A498, 23.1 µM (inactive); in the experiment with Hs-578T, 16.1 µM (inactive); in the experiment on HCT-15 it was 62.8 µM; in the experiment on SNB-19, 21.9 µM (inactive). Further, the GI50 with SR is 22.2 µM (inactive); with HCT-116 it was 19.6 µM (inactive); in the experiment with SN12C it was 24.7 µM (inactive); with HCC 2998, 16.4 µM (inactive); with EKVX, 57.3 µM (inactive); with BT-549 it was 14.1 µM (inactive). For the same compound, the GI50 in the experiment with COLO 205 was 18.5 µM (inactive); in the experiment on NCI/ADR-RES, > 100 µM (inactive).
Turning to `CC(Cl)(CCC(Cl)C(C)(C)Cl)C(=O)CBr` (stereo not given), the GI50 in the experiment on MDA-MB-231 was 11.1 µM (inactive); in the experiment with DU-145, 19.5 µM (inactive); in the experiment on PC-3, 14.6 µM (inactive); in the experiment on SK-OV-3, 13.4 µM (inactive); in the experiment on SK-MEL-28, 16.7 µM (inactive); with MCF7 it was 13 µM (inactive). Besides, the GI50 with NCI-H23 was 18.3 µM (inactive); in the experiment with HT-29, 13.1 µM (inactive); in the experiment with A498 it was 17.2 µM (inactive); in the experiment with Hs-578T it was 17.4 µM (inactive); with HCT-15, 8.28 µM; with SNB-19, 30.3 µM (inactive). Further, the GI50 with SR is 1.8 µM (inactive); in the experiment on HCT-116 it was 7.05 µM (inactive); in the experiment with SN12C it was 14.7 µM (inactive); with HCC 2998, 17.1 µM (inactive); with EKVX it was 16.4 µM (inactive); with BT-549 it was 14.2 µM (inactive). The GI50 in the experiment on COLO 205 was 6.27 µM (inactive); in the experiment with NCI/ADR-RES it was 22.8 µM (inactive).
